Reference: patent US12528814B2, “Bifunctional degraders of interleukin-1 receptor-associated kinases and therapeutic use thereof” (NURIX THERAPEUTICS, INC., priority 2020, dated 2026)
pIC50: −log10 of the molar value. Like-named read-outs stand apart in the source and are kept apart here.

Assays:
IRAK4 [1] = biological target: T1, IRAK4 (Homo sapiens (Human), UniProt Q9NWZ3); assay: IRAK4 Degradation HiBiT Assay; conditions: HiBiT-tagged Jurkat cells, 4 hrs; for Dmax: Jurkat; for DC50: read-out: Cellular IRAK4 HiBiT: DC50
Target sequence in this assay (Q9NWZ3 whole entry): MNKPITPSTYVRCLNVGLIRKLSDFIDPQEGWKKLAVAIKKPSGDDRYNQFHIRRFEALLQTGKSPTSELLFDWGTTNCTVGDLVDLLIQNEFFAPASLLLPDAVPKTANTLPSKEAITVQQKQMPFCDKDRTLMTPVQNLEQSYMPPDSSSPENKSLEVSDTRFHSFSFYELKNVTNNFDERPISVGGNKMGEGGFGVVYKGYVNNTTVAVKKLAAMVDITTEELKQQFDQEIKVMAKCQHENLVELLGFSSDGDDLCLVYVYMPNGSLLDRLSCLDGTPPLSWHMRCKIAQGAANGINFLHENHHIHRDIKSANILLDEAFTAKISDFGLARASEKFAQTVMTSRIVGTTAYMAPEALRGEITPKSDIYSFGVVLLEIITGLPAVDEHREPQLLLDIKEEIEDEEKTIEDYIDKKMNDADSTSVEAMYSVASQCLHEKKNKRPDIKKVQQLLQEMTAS

IRAK4 [2] = biological target: T1, IRAK4; assay: IRAK4 Biochemical HTRF Kinase Assay; conditions: read-out: IRAK4 HTRF biochemical: IC50
Method: IRAK4 Biochemical HTRF Kinase Assay
The binding capacities of certain bifunctional compounds of Formula (I) were determined using the CisBio HTRF KinEASE STK S1 Kit (#62ST1PEB, contains 5× Kinase buffer, 1× Detection Buffer, anti-phospho-serine/threonine-cryptate, Streptavidin-XL665, and STK-S1), which measures the phosphorylation of a biotinylated peptide substrate by IRAK4, according to the manufacturer's protocol. […] 2 μl of a reaction solution containing 5 μM STK-S1, 10 mM ATP, and 10 mM MgCl2 were added to each well to a final volume of 10 μl. Assay controls include wells containing kinase with no compound (DMSO only) and wells containing no kinase and no compound (DMSO only). The reactions were allowed to proceed at ambient temperature for 90 minutes. […] The plates were incubated for 60 minutes at ambient temperature and then read on an Envision Multilabel Reader (PerkinElmer). […] For IC50 determination, the compounds were tested at sixteen concentrations in duplicate and curve-fitting was performed by non-linear regression analysis using GraphPad Priam.
Target sequence in this assay (Q9NWZ3 whole entry, species assumed): as the sequence (Q9NWZ3 whole entry) above

[3] = read-out: Cellular IRAK4 HiBiT: Dmax, Table 4
[4] = read-out: Cellular IRAK4 HiBiT: Dmax, Table 5, multiple runs

Structure (SMILES) | Dmax (IRAK4 [1]; [3]) | Dmax (IRAK4 [1]; [4]) | DC50 (IRAK4 [1]; Table 4) | DC50 (IRAK4 [1]; Table 5, multiple runs) | pIC50 (IRAK4 [2]; Table 4) | pIC50 (IRAK4 [2]; Table 5, multiple runs)
CC(C)Nc1cc(-c2ccc3cc(C#N)cnn23)ncc1-c1nnc(N2CCN(C(=O)CCCCCNc3cccc4c3C(=O)N(C3CCC(=O)NC3=O)C4=O)CC2)s1 (stereo not drawn) [Example 9, 7-(5-(5-(4-(6-((2-(2,6-dioxopiperidin-3-yl)-1,3-dioxoisoindolin-4-yl)amino)hexanoyl)piperazin-1-yl)-1,3,4-thiadiazol-2-yl)-4-(isopropylamino)pyridin-2-yl)pyrrolo[1,2-b]pyridazine-3-carbonitrile] | 125% | 125% | 218 nM | 217 nM | 8.54 | 8.54
CC(C)Nc1cc(-c2ccc3cc(C#N)cnn23)ncc1-c1nnc(N2CCN(C(=O)CCOCCNc3ccc4c(c3)C(=O)N(C3CCC(=O)NC3=O)C4=O)CC2)s1 (stereo not drawn) [Example 10, 7-(5-(5-(4-(3-(2-((2-(2,6-dioxopiperidin-3-yl)-1,3-dioxoisoindolin-5-yl)amino)ethoxy)propanoyl)piperazin-1-yl)-1,3,4-thiadiazol-2-yl)-4-(isopropylamino)pyridin-2-yl)pyrrolo[1,2-b]pyridazine-3-carbonitrile] | 103% | 103% | 49.1 nM | 49.1 nM | 9.00 | 9.00
CC(C)Nc1cc(-c2ccc3cc(C#N)cnn23)ncc1-c1nnc(N2CCN(C(=O)CCOCCOCCOCCNc3cccc4c3C(=O)N(C3CCC(=O)NC3=O)C4=O)CC2)s1 (stereo not drawn) [Example 11, 7-(5-(5-(4-(3-(2-(2-(2-((2-(2,6-dioxopiperidin-3-yl)-1,3-dioxoisoindolin-4-yl)amino)ethoxy)ethoxy)ethoxy)propanoyl)piperazin-1-yl)-1,3,4-thiadiazol-2-yl)-4-(isopropylamino)pyridin-2-yl)pyrrolo[1,2-b]pyridazine-3-carbonitrile] | 104% | 104% | 128 nM | 128 nM | 8.89 | 8.89

Other lines, results leading:

Dmax (IRAK4 [1]; [3]) | Dmax (IRAK4 [1]; [4]) | DC50 (IRAK4 [1]; Table 4) | DC50 (IRAK4 [1]; Table 5, multiple runs) | pIC50 (IRAK4 [2]; Table 4) | pIC50 (IRAK4 [2]; Table 5, multiple runs) | Structure (SMILES)
92% | 91% | 108 nM | 98.1 nM | 8.92 | 8.92 | CC(C)Nc1cc(-c2ccc3cc(C#N)cnn23)ncc1-c1nnc(N2CCN(C(=O)C3CCN(C[C@H]4CCN(c5ccc6c(c5)C(=O)N(C5CCC(=O)NC5=O)C6=O)C4)CC3)CC2)s1 (stereo partly drawn) [Example 12, 7-(5-(5-(4-(1-(((3R)-1-(2-(2,6-dioxopiperidin-3-yl)-1,3-dioxoisoindolin-5-yl)pyrrolidin-3-yl)methyl)piperidine-4-carbonyl)piperazin-1-yl)-1,3,4-thiadiazol-2-yl)-4-(isopropylamino)pyridin-2-yl)pyrrolo[1,2-b]pyridazine-3-carbonitrile]
99% | 97% | 42.7 nM | 37.2 nM | 9.10 | 9.10 | CC(C)Nc1cc(-c2ccc3cc(C#N)cnn23)ncc1-c1nnc(N2CCN(C(=O)CCN3CCN(c4ccc5c(c4)C(=O)N(C4CCC(=O)NC4=O)C5=O)CC3)CC2)s1 (stereo not drawn) [Example 14, 7-(5-(5-(4-(3-(4-(2-(2,6-dioxopiperidin-3-yl)-1,3-dioxoisoindolin-5-yl)piperazin-1-yl)propanoyl)piperazin-1-yl)-1,3,4-thiadiazol-2-yl)-4-(isopropylamino)pyridin-2-yl)pyrrolo[1,2-b]pyridazine-3-carbonitrile]
81% | 85% | 82.7 nM | 86.9 nM | 9.00 | 9.00 | CC(C)Nc1cc(-c2ccc3cc(C#N)cnn23)ncc1-c1nnc(N2CCN(C(=O)CN3CCC4(CC3)CN(c3ccc5c(c3)C(=O)N(C3CCC(=O)NC3=O)C5=O)C4)CC2)s1 (stereo not drawn) [Example 15, 7-(5-(5-(4-(2-(2-(2-(2,6-dioxopiperidin-3-yl)-1,3-dioxoisoindolin-5-yl)-2,7-diazaspiro[3.5]nonan-7-yl)acetyl)piperazin-1-yl)-1,3,4-thiadiazol-2-yl)-4-(isopropylamino)pyridin-2-yl)pyrrolo[1,2-b]pyridazine-3-carbonitrile]
